Earlier results on 2 compounds are cited in patent US20120238571A1, “INDAZOLE DERIVATIVES AS PI 3-KINASE” (Glaxo Group Limited, priority 2009, published 2012).

Like-named read-outs stand apart in the source and are kept apart here.

Data set [1] addresses CK2 protein kinase (Homo sapiens, UniProt P68400).
The subject of data set [2] is Class I PI3-kinases.

CK2 protein kinase, sequence (P68400 whole entry): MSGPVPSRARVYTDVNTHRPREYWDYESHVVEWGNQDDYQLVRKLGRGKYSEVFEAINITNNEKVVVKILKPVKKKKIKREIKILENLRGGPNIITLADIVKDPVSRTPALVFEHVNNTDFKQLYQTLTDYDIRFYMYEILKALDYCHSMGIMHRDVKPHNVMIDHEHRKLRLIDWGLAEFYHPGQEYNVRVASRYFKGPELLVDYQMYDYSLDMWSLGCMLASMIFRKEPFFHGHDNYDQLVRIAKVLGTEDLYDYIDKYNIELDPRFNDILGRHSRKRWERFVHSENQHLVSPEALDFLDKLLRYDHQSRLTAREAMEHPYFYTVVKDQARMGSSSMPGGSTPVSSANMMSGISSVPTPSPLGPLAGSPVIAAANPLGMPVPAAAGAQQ

What is called IC50 is the concentration at which inhibition is half-maximal. Turning to `O=c1cc(N2CCOCC2)oc2c(-c3ccccc3)cccc12` [LY294002], the IC50 in data set [1] was 5 to 10 µM; in data set [2] (each of the Class I PI3-kinases, Fruman et al. 1998, read-out: IC50 against each of these PI3-kinases) it was 15 to 20 µM.
With `COC[C@H]1OC(=O)c2coc3c2[C@@]1(C)C1=C(C3=O)[C@@H]2CCC(=O)[C@@]2(C)C[C@H]1OC(C)=O` [wortmannin], the IC50 in data set [2] (each of the four Class I PI3-kinases, read-out: IC50 against each of the various Class I PI3-kinases) was 0.001 to 0.01 µM.
